Molecules are shown by their SMILES.

The test system of this test is form-deprivation myopia. Kind of test: Form-deprivation myopia (FDM) development in chicks with a translucent diffuser; axial length by A-scan ultrasonography. As to conditions: four days; for axial length: diffuser-treated eye.
The mark [1] stands for this setting: daily intravitreal injection of 1.5 mM solution.
[2] abbreviates: daily intravitreal injection of 15 mM solution.
[3] abbreviates: daily intravitreal injection of 1.5 mM solution (10 μL), mean±SEM.
Where [4] appears, read: daily intravitreal injection of 15 mM solution (10 μL), mean±SEM.
[5] abbreviates: twice daily topical administration of 1.5 mM solution, mean±SEM.
Where [6] appears, read: twice daily topical eye drops of 15 mM solution, mean±SEM.
[7] abbreviates: twice daily topical eye drops of 15 mM solution.

Description: 30 white male cockerel chickens were randomly assigned to one of six treatment groups as defined below (n=5 per group) and were treated for a four day period. • Chicks fitted with a translucent diffuser over their left eye to induce form-deprivation myopia (FDM); • Chicks fitted with a translucent diffuser over their left eye and daily intravitreal injection of a 1.5 mM (0.028%) dopamine solution prepared according to Example 1; • Chicks fitted with a translucent diffuser over their left eye and twice daily topical administration of a 1.5 mM (0.028%) dopamine solution prepared according to Example 1; • Chicks fitted with a translucent diffuser over their left eye and daily intravitreal injection of a 15 mM (0.28%) dopamine solution prepared according to Example 1; • Chicks fitted with a translucent diffuser over their left eye and twice daily topical administration of a 15 mM (0.28%) dopamine solution prepared according to Example 1; • Age-matched untreated control group.
For the drug treatments, the compositions were administered under light isoflurane anesthesia using intravitreal injection or topical administration.
Intravitreal injection was performed as follows: Using a 30 gauge needle attached to a Hamilton syringe, 10 μL (0.01 mL) of the test composition was injected into the vitreous chamber of the eye once daily.
Topical administration was performed as follows: Two drops of 40 μL (two drops of 0.04 mL, or 0.08 mL total) of the test composition was applied to the corneal surface of the eye using an eye drop dispenser. Drops were applied to the chicks twice daily.
To determine changes in the rate of eye growth and the development of myopia, changes in axial length was assessed. […] Axial length, anterior chamber depth and vitreal chamber depth were measured using A-scan ultrasonography (Biometer AL-100; Tomey Corporation, Nagoya, Japan). Statistical analysis of changes in axial length, anterior chamber depth and vitreal chamber depth between groups involved a one-way ANOVA test followed by a Student's T-test with Bonferroni correction. All data are presented as the mean±the standard deviation of the mean (SEM).

`CN1[C@@H]2CC[C@H]1C[C@@H](OC(=O)C(CO)c1ccccc1)C2` (stereo partly drawn) [atropine]: the “effect on excessive axial elongation associated with form-deprivation myopia (in words)” value (from here on “effect”) (daily intravitreal injection of 0.25 mM atropine alone) is reported as “significantly inhibited”. The axial length (twice daily topical administration of 50 mM atropine solution alone) is on record as 8.79±0.09 mm.
Take `NCCc1ccc(O)c(O)c1` [dopamine, 2-(3,4-dihydroxyphenyl)ethylamine]: the “protection relative to FDM-only” value is, setting by setting: under setting [1], 78%; under setting [2], 78%; under setting [7], 72%. The axial length reads like this: under setting [3], 8.82±0.02 mm; under setting [4], 8.82±0.11 mm; under setting [5], 8.97±0.08 mm; under setting [6], 8.84±0.07 mm.
For the compound `[2H]C([2H])(N)C([2H])([2H])c1ccc(O)c(O)c1` [dopamine-1,1,2,2-d4, 2-(3,4-dihydroxyphenyl)ethyl-1,1,2,2,d4-amine], the “effect” value (daily intravitreal injection of 0.15 mM dopamine-1,1,2,2-d4 alone) is “significantly inhibited”. The “protection relative to FDM-only” value was determined as 92% under setting [1], 103% under setting [2] and 71% under setting [7]. For the same compound, the axial length runs as follows: under setting [3], 8.77±0.11 mm; under setting [4], 8.72±0.06 mm; under setting [5], 8.88±0.10 mm; under setting [6], 8.85±0.14 mm.
With `CN1CCN(CC(=O)N2c3ccccc3C(=O)Nc3cccnc32)CC1` [pirenzepine], for the setting “daily intravitreal injection of 17 mM pirenzepine alone”, the “effect” value is “significantly inhibited”.

The values above are taken from patent US20220047529A1, “METHODS OF INHIBITION” (University of Canberra, priority 2018, published 2022).
